In patent publication US9241492B2, “Bioactive acid agrichemical compositions and use thereof” (Sciessent LLC, priority 2007, dated 2016):

Test system: E. amylovora 153N
Test: Fire blight on Snow Drift crabapple trees (Example 311)
Type: in vivo
Settings: rate 5 lbs/a (2.27 kg/a)
Description: A study of the bioefficacy of the various agrichemical compositions, including bioactive acid solutions and blends thereof with an antibiotic agrichemical, were evaluated to assess their bioefficacy against fire blight on crabapples. The study was conducted on 5 year old Snow Drift crabapple trees, with each of the compositions being applied to ten trees in two-subplots of five trees, four different times: at 100% bloom—day 1, a second application was made on day 4, a third on day 11 and a final treatment on day 19. The trees were inoculated with E. amylovora 153N at a concentration of 4×10^6 cells per milliliter on day 1, following drying of the treatment, with the inoculation being repeated on day 13. Evaluation for fire blight was completed on 100 blossoms for each of the subplots on day 12, day 19 and day 27. Additionally, the incidence of shoot infection and the length of cankers were evaluated on day 63.
The test compositions were prepared by forming solutions of the bioactive agents. Two different dilutions of the MI2 bioactive were evaluated, the first employing 94.46 ml/gallon (25 ml/l) of water (5 ppm of each metal) and the second 188.9 ml/gallon (50 ml/l) of water (10 ppm of each metal). A streptomycin product (17% concentrated) was diluted at a rate of 0.049 lbs/gallon ([…]) (200 ppm). Finally, copper hydroxide was diluted at a rate of 1 lb/gallon (119.8 g/l). Each of the compositions and blends were spray applied at a rate of 50 gallons (189.3 l) pre acre. The results are presented as the mean of the counts.

Structure (SMILES): [Cu+2].[OH-].[OH-] [copper hydroxide]
- Blossom Incidence Day 12 (day 12, mean of counts per 100 blossoms): 3.1
- Blossom Incidence Day 19 (day 19): 2.2
- Blossom Incidence Day 27 (day 27): 9.0
- Canker Size Day 63 (day 63): 0.0 cm
- Shoot Incidence Day 63 (day 63): 1.0
